This note sets out measurements from patent publication US20060069123A1, “Substituted dipiperidine CCR2 antagonists” (priority 2004, published 2006).

The target in one assay is T1, CCR2 (Homo sapiens, UniProt P41597).
T1 sequence (P41597 1-360 isoform P41597-2): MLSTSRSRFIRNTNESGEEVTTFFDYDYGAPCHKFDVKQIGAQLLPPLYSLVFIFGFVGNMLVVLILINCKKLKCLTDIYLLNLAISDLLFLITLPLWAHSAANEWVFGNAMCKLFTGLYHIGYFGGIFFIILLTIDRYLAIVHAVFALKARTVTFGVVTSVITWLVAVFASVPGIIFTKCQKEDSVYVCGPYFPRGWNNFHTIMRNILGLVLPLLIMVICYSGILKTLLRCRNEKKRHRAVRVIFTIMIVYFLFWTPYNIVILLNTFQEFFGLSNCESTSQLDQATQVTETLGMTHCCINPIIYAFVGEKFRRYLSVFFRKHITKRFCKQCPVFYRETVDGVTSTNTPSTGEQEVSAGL

Assay [1] concerns THP-1 cells. Conditions: Homo sapiens; for inhibition at 25 µM: THP-1, read-out: Inhibition of MCP-1 Induced Calcium Ion Influx, percent inhibition.
Assay [2] relates to THP-1 cells. The assay can be described thus: MCP-1 Induced Chemotaxis in THP-1 Cells. To be noted: Homo sapiens; THP-1 cells, MCP-1 0.01 μg/mL, 3 hours; read-out: Inhibition of MCP-1 Induced Chemotaxis IC50. The assay is classed as cell-based. The method, then:
MCP-1 Induced Chemotaxis in THP-1 Cells
MCP-1 induced chemotaxis was run in a 24-well chemotaxis chamber. MCP-1 (0.01 μg/mL) was added to the lower chamber and 100 μL of THP-1 cells (1×10^7 cell/mL) was added to the top chamber. Varying concentrations of test compound were added to the top and bottom chambers. Cells were allowed to chemotax for 3 hours at 37° C. and 5% CO2. An aliquot of the cells that had migrated to the bottom chamber was taken and counted then compared to vehicle.

[3] abbreviates: THP-1, read-out: Inhibition of MCP-1 Induced Calcium Ion Influx IC50.

Read-outs that look alike come from different tables or passages of the source.

`NC(=O)C(C1CCN(C(=O)/C=C/c2cc(F)c(F)c(F)c2)CC1)N1CCC(c2c[nH]c3ncccc23)CC1` (stereo not shown) [Cpd 227, 2-[4-(1H-pyrrolo[2,3-b]pyridin-3-yl)-piperidin-1-yl]-2-{1-[(2E)-3-(3,4,5-trifluoro-phenyl)-acryloyl]-piperidin-4-yl}-acetamide]: the IC50 – broadly, the concentration needed to halve the response being measured – at CCR2 (Inhibition of MCP-1 Binding IC50, 125I labeled MCP-1 binding to CCR2, THP-1 cells) was found to be 960 nM; in the assay with THP-1 cells [1] (THP-1, read-out: Inhibition of MCP-1 Induced Calcium Ion Influx IC50, THP-1 cells, 0.2 μM MCP-1, FLIPR) it was 870 nM.
On to `O=C(/C=C/c1ccc(Cl)c(Cl)c1)N1CCC(C(CCl)N2CCC(c3ccc(Cl)cc3)CC2)CC1` (stereo not shown) [Cpd 245], for which the IC50 against CCR2 is 2170 nM; with THP-1 cells [1] (setting [3]), 400 nM.
Consider `COc1ccc2c(C3CCN(C(C(=O)O)C4CCN(C(=O)Nc5ccc(Cl)c(Cl)c5)CC4)CC3)c[nH]c2c1` (stereo not shown) [Cpd 95, [1-(3,4-dichloro-phenylcarbamoyl)-piperidin-4-yl]-[4-(6-methoxy-1H-indol-3-yl)-piperidin-1-yl]-acetic acid], for which the IC50 on CCR2 and with THP-1 cells [2] was 20 nM throughout.
With `O=C(O)C(C1CCN(C(=O)/C=C/c2ccc(Cl)c(Cl)c2)CC1)N1CCC(c2c[nH]c3cc(Cl)ccc23)CC1` (stereo not shown) [Cpd 46, [4-(6-chloro-1H-indol-3-yl)-piperidin-1-yl]-{1-[(2E)-3-(3,4-dichloro-phenyl)-acryloyl]-piperidin-4-yl}-acetic acid], the IC50 against CCR2 was 1 nM; in the assay with THP-1 cells [2], 0.2 nM.
With `O=C(O)C(C1CCN(C(=O)/C=C/c2ccc(C(F)(F)F)c(F)c2)CC1)N1CCC(c2c[nH]c3ccccc23)CC1` (stereo not shown) [Cpd 75, {1-[(2E)-3-(3-fluoro-4-trifluoromethyl-phenyl)-acryloyl]-piperidin-4-yl}-[4-(1H-indol-3-yl)-piperidin-1-yl]-acetic acid], the IC50 against CCR2 came out at 4 nM; in the assay on THP-1 cells [2], 9 nM.
At CCR2, `CC(=O)NCC(C1CCN(C(=O)/C=C/c2ccsc2)CC1)N1CCC(c2c[nH]c3ccccc23)CC1` (stereo not shown) [Cpd 219] displayed an IC50 of 340 nM. Further, the inhibition (commonly the percentage by which the read-out fell short of the control) at 25 µM in the assay on THP-1 cells [1] is 52%.
For `N=C(NC(=O)c1ccc(Cl)c(Cl)c1)N1CCC(C(CO)N2CCC(c3c[nH]c4ccccc34)CC2)CC1` (stereo not shown) [Cpd 128, 3,4-dichloro-N-[(4-{2-hydroxy-1-[4-(1H-indol-3-yl)-piperidin-1-yl]-ethyl}-piperidin-1-yl)-imino-methyl]-benzamide], the IC50 on CCR2 is 320 nM; in the assay with THP-1 cells [1] (setting [3]) it was 20 nM.
In turn, `O=C(/C=C/c1cccc(C(F)(F)F)c1)N1CCC(C(CO)N2CCC(c3ccncc3)CC2)CC1` (stereo not shown) [Cpd 184, (2E)-1-{4-[2-hydroxy-1-(3,4,5,6-tetrahydro-2H-[4,4′]bipyridinyl-1-yl)-ethyl]-piperidin-1-yl}-3-(3-trifluoromethyl-phenyl)-propenone] returned an IC50 on CCR2 of 1600 nM. Also, in the assay on THP-1 cells [1], the inhibition at 25 µM was determined as 14%.
`O=C(O)C(C1CCN(C(=O)Nc2ccc(F)c(C(F)(F)F)c2)CC1)N1CCC(c2c[nH]c3ccccc23)CC1` (stereo not shown) [Cpd 58, [1-(4-fluoro-3-trifluoromethyl-phenylcarbamoyl)-piperidin-4-yl]-[4-(1H-indol-3-yl)-piperidin-1-yl]-acetic acid]: the IC50 on CCR2 turned out to be 90 nM; with THP-1 cells [2], 130 nM.
Take `OCC(C1CCN(C(=S)Nc2ccc(Cl)c(Cl)c2)CC1)N1CCC(c2c[nH]c3ccccc23)CC1` (stereo not shown) [Cpd 122, 4-{2-hydroxy-1-[4-(1H-indol-3-yl)-piperidin-1-yl]-ethyl}-piperidine-1-carbothioic acid (3,4-dichloro-phenyl)-amide]: the figures for the IC50 against CCR2 and in the assay with THP-1 cells [1] (setting [3]) were 40 nM and 0.8 nM, respectively.
As to `O=C(O)C(C1CCN(C(=O)/C=C/c2cccc(C(F)(F)F)c2)CC1)N1CCC(c2c[nH]c3ccccc23)CC1` (stereo not shown) [Cpd 35, [4-(1H-indol-3-yl)-piperidin-1-yl]-{1-[(2E)-3-(3-trifluoromethyl-phenyl)-acryloyl]-piperidin-4-yl}-acetic acid], the figures for the IC50 on CCR2 and with THP-1 cells [2] were 8 nM and 30 nM, respectively.
As for `O=C(O)C(C1CCN(C(=O)/C=C/c2ccc(F)cc2)CC1)N1CCC(c2c[nH]c3ccccc23)CC1` (stereo not shown) [Cpd 77, {1-[(2E)-3-(4-fluoro-phenyl)-acryloyl]-piperidin-4-yl}-[4-(1H-indol-3-yl)-piperidin-1-yl]-acetic acid], the IC50 against CCR2 was determined as 70 nM; in the assay on THP-1 cells [2] it was 60 nM.
`O=C(/C=C/c1ccc(Cl)cc1)N1CCC(C(CO)N2CCC(c3ccc(Cl)cc3)CC2)CC1` (stereo not shown) [Cpd 258, (2E)-3-(4-chloro-phenyl)-1-(4-{1-[4-(4-chloro-phenyl)-piperidin-1-yl]-2-hydroxy-ethyl}-piperidin-1-yl)-propenone]: the IC50 on CCR2 stood at 200 nM; in the assay on THP-1 cells [1] (setting [3]), 2300 nM.
`Cc1cccc(/C=C/C(=O)N2CCC(C(C(=O)O)N3CCC(c4c[nH]c5ccccc45)CC3)CC2)c1` (stereo not shown) [Cpd 70, [4-(1H-indol-3-yl)-piperidin-1-yl]-{1-[(2E)-3-m-tolyl-acryloyl]-piperidin-4-yl}-acetic acid]: the IC50 at CCR2 worked out at 3 nM; with THP-1 cells [2], 20 nM.
For the compound `O=C(/C=C/c1cc(F)cc(F)c1)N1CCC(C(CO)N2CCC(c3nc4ccccc4[nH]3)CC2)CC1` (stereo not shown) [Cpd 174, (2E)-1-(4-{1-[4-(1H-benzoimidazol-2-yl)-piperidin-1-yl]-2-hydroxy-ethyl}-piperidin-1-yl)-3-(3,5-difluoro-phenyl)-propenone], the results for the IC50 at CCR2 and in the assay on THP-1 cells [2] were 150 nM and 450 nM, respectively.
Take `CC(C)(C)OC(=O)Nc1ccc2[nH]cc(C3CCN(C(C(=O)O)C4CCN(C(=O)/C=C/c5cc(F)c(F)c(F)c5)CC4)CC3)c2c1` (stereo not shown) [Cpd 81]: the IC50 against CCR2 and in the assay on THP-1 cells [2] was 30 nM throughout.
For `CCNC(=O)NCC(C1CCN(C(=O)/C=C/c2ccc(F)c(Br)c2)CC1)N1CCC(c2c[nH]c3ccccc23)CC1` (stereo not shown) [Cpd 233], the IC50 against CCR2 worked out at 660 nM; in the assay on THP-1 cells [1] (setting [3]) it was 1800 nM.
In the case of `Cc1ccc(NC(=O)N2CCC(C(C(=O)O)N3CCC(c4c[nH]c5ccccc45)CC3)CC2)cc1Cl` (stereo not shown) [Cpd 49, [1-(3-chloro-4-methyl-phenylcarbamoyl)-piperidin-4-yl]-[4-(1H-indol-3-yl)-piperidin-1-yl]-acetic acid], the half-maximal inhibitory concentration (IC50) against CCR2 amounted to 25 nM; with THP-1 cells [2], 4 nM.
As for `O=C(O)C(C1CCN(C(=O)/C=C/c2cc(F)c(F)c(F)c2)CC1)N1CCC(c2c[nH]c3ncccc23)CC1` (stereo not shown) [Cpd 151, [4-(1H-pyrrolo[2,3-b]pyridin-3-yl)-piperidin-1-yl]-{1-[(2E)-3-(3,4,5-trifluoro-phenyl)-acryloyl]-piperidin-4-yl}-acetic acid], the figures for the IC50 on CCR2 and in the assay on THP-1 cells [2] were 10 nM and 30 nM, respectively.
Take `O=C(O)C(C1CCN(C(=O)/C=C/c2ccc(F)c(Cl)c2)CC1)N1CCC(c2c[nH]c3ccccc23)CC1` (stereo not shown) [Cpd 76, {1-[(2E)-3-(3-chloro-4-fluoro-phenyl)-acryloyl]-piperidin-4-yl}-[4-(1H-indol-3-yl)-piperidin-1-yl]-acetic acid]: the figures for the half-inhibitory concentration (IC50) against CCR2 and in the assay with THP-1 cells [2] were 2 nM and 10 nM, respectively.
For `Cc1ccc(/C=C/C(=O)N2CCC(C(C(=O)O)N3CCC(c4c[nH]c5ccccc45)CC3)CC2)cc1F` (stereo not shown) [Cpd 74, {1-[(2E)-3-(3-fluoro-4-methyl-phenyl)-acryloyl]-piperidin-4-yl}-[4-(1H-indol-3-yl)-piperidin-1-yl]-acetic acid], the results for the IC50 at CCR2 and with THP-1 cells [2] were 5 nM and 6 nM, respectively.
`COc1ccc2[nH]cc(C3CCN(C(C(=O)O)C4CCN(C(=O)/C=C/c5ccc(Cl)c(Cl)c5)CC4)CC3)c2c1` (stereo not shown) [Cpd 47, {1-[(2E)-3-(3,4-dichloro-phenyl)-acryloyl]-piperidin-4-yl}-[4-(5-methoxy-1H-indol-3-yl)-piperidin-1-yl]-acetic acid]: the half-inhibitory concentration (IC50) against CCR2 came to 10 nM; in the assay with THP-1 cells [2], 0.2 nM.
With `O=C(O)C(C1CCN(C(=O)/C=C/c2cc(F)cc(F)c2)CC1)N1CCC(c2c[nH]c3cc(F)ccc23)CC1` (stereo not shown) [Cpd 24, {1-[(2E)-3-(3,5-difluoro-phenyl)-acryloyl]-piperidin-4-yl}-[4-(6-fluoro-1H-indol-3-yl)-piperidin-1-yl]-acetic acid], the IC50 on CCR2 turned out to be 10 nM; in the assay with THP-1 cells [2], 0.7 nM.
Turning to `O=C(O)C(C1CCN(C(=O)Nc2cccc(Cl)c2)CC1)N1CCC(c2c[nH]c3ccccc23)CC1` (stereo not shown) [Cpd 86, [1-(3-chloro-phenylcarbamoyl)-piperidin-4-yl]-[4-(1H-indol-3-yl)-piperidin-1-yl]-acetic acid], the half-maximal inhibitory concentration (IC50) against CCR2 is 210 nM; with THP-1 cells [2], 280 nM.
On to `O=C(O)C(C1CCN(C(=O)Nc2ccc(F)c(Cl)c2)CC1)N1CCC(c2c[nH]c3ccccc23)CC1` (stereo not shown) [Cpd 48, [1-(3-chloro-4-fluoro-phenylcarbamoyl)-piperidin-4-yl]-[4-(1H-indol-3-yl)-piperidin-1-yl]-acetic acid], for which the IC50 against CCR2 is 30 nM; with THP-1 cells [2] it was 40 nM.
With `O=C(O)C(C1CCN(C(=O)Nc2cc(F)cc(F)c2)CC1)N1CCC(c2c[nH]c3ccccc23)CC1` (stereo not shown) [Cpd 28, [1-(3,5-difluoro-phenylcarbamoyl)-piperidin-4-yl]-[4-(1H-indol-3-yl)-piperidin-1-yl]-acetic acid], the IC50 worked out at 100 nM against CCR2 and 430 nM with THP-1 cells [2].
